pIC50: −log10 of the molar value.
The compounds below were run against T1, Xanthine dehydrogenase/oxidase (Homo sapiens, UniProt P47989) (assay: Inhibition of human xanthine oxidase).
T1 sequence (P47989 whole entry): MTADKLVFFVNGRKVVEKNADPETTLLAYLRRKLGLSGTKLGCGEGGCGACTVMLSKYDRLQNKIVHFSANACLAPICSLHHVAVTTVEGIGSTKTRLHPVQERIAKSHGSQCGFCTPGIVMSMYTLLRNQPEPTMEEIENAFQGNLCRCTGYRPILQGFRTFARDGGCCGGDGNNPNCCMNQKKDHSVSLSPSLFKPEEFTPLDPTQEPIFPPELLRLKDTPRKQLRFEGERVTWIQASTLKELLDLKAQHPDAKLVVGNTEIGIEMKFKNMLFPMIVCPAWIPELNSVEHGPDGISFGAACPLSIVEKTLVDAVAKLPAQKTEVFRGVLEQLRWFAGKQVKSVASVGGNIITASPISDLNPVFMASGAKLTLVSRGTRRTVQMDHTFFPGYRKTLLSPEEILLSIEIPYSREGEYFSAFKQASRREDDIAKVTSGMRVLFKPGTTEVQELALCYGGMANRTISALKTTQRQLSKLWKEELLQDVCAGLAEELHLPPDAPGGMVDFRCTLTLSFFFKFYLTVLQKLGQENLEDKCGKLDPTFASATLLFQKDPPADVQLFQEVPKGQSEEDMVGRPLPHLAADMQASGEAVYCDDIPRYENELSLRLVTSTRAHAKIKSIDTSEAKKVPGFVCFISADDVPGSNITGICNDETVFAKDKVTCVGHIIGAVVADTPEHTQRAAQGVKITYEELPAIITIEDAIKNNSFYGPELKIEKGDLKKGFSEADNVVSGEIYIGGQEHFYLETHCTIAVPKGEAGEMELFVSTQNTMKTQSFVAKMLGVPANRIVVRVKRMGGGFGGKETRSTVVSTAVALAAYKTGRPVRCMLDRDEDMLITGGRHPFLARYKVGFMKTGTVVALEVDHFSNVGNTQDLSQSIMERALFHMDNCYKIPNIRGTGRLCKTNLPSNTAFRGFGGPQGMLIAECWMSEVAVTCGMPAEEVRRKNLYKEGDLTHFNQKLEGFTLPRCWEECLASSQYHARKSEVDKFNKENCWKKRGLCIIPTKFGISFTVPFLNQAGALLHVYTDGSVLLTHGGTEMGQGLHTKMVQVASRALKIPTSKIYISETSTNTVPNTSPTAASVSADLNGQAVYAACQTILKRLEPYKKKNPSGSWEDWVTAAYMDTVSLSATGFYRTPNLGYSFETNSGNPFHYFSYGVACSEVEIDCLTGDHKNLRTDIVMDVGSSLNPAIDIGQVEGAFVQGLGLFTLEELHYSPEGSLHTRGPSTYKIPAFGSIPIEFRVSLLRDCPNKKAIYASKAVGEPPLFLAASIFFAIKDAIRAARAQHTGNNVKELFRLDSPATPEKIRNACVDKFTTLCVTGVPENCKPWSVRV

Row | SMILES | pIC50
1 | COc1nc(N)nc2nc[nH]c12 [METHYLGUANINE] | < 3.70
2 | Nc1ncc2[nH]cnc2n1 [2-AMINOPURINE] | < 3.70
3 | Nc1nc2nc[nH]c2c(=S)[nH]1 [THIOGUANINE] | 4.03
4 | Nc1nc(Cl)c2nc[nH]c2n1 [6-CHLOROGUANINE] | < 3.70
5 | Cc1ccc2[nH]cnc2c1 | < 3.70
6 | Cn1c(=O)[nH]c2nc[nH]c2c1=O [1-METHYLXANTHINE] | < 3.70
7 | Nc1ncnc2[nH]ncc12 | 4.52
8 | Nc1nc(N)c2[nH]cnc2n1 [2,6-DIAMINOPURINE] | < 3.70
9 | Cc1cc2nc[nH]c2cc1C [DIMEDAZOL] | < 3.70
10 | O=[N+]([O-])c1ccc2[nH]cnc2c1 | 4.06

The compounds below were run against T1, Xanthine dehydrogenase/oxidase (assay: Inhibition of human xanthine oxidase at 30 uM).

Row | SMILES | inhibition at 30 µM [%]
11 | Nc1ncnc2[nH]ncc12 | 49.8
12 | Nc1[nH]cnc2ncnc1-2 [ADENINE] | 61.3
13 | Oc1ncnc2[nH]ncc12 [ALLOPURINOL] | 93.8

— ChEMBL document CHEMBL1143034, “The screening and characterization of 6-aminopurine-based xanthine oxidase inhibitors” (Bioorg Med Chem, 2007)
